Measured values: ChEMBL document CHEMBL3763146 (J Med Chem, 2016)

Experiments:
[1] = Half life in rat at 1 mg/kg, iv or 2 mg/kg, po; assay type: ADME, organism-based; conditions: in vivo
[2] = Drug recovery in bile duct cannulated rat bile at 5 mg/kg, iv measured over 48 hrs; assay type: ADME, organism-based; conditions: read-out: Drug recovery
[3] = Fraction unbound in dog at 0.5 mg/kg, iv or 2 mg/kg, po; assay type: ADME, organism-based, Canis lupus familiaris; conditions: in vivo
Cytochrome P450 2D6 = Cytochrome P450 2D6 (Homo sapiens, UniProt P10635); assay: Inhibition of CYP2D6 in human liver microsomes assessed as dextraomethorphan O-demethylation; assay type: ADME
Cytochrome P450 3A4 = Cytochrome P450 3A4 (Homo sapiens, UniProt P08684); assay: Time-dependent inhibition of CYP3A4 in human liver microsomes up to 50 uM; assay type: ADME
Cynomolgus monkey [4] = assay: Toxicity in cynomolgus monkey assessed as postmortem parameters measured up to 9 months; assay type: organism-based, Macaca fascicularis; conditions: in vivo
[5] = Intrinsic clearance in human liver microsomes; assay type: ADME; conditions: read-out: CLH
[6] = Oral bioavailability in dog at 2 mg/kg; assay type: ADME, organism-based, Canis lupus familiaris; conditions: in vivo
[7] = Stability in human plasma assessed as parent compound remaining at 24 hrs by LC-MS analysis; assay type: ADME, cell-free; conditions: read-out: Stability
[8] = target: Beta-3 adrenergic receptor (Macaca mulatta, UniProt Q28524); assay: Agonist activity at rhesus monkey beta3 adrenergic receptor expressed in CHO cells assessed as accumulation of cAMP after 30 mins by TR-FRET assay in presence of 40% serum; assay type: functional, cell-based
[9] = Intrinsic clearance in dog liver microsomes; assay type: ADME, Canis lupus familiaris; conditions: read-out: CLH
[10] = Stability in rat plasma assessed as parent compound remaining at 24 hrs by LC-MS analysis; assay type: ADME, cell-free; conditions: read-out: Stability
[11] = target: T1, Beta-3 adrenergic receptor (Homo sapiens, UniProt P13945); assay: Agonist activity at human beta3 adrenergic receptor expressed in CHO cells assessed as accumulation of cAMP after 30 mins by TR-FRET assay relative to (R)-(-)-isoproterenol; assay type: functional, cell-based
Rattus norvegicus [12] = assay: Increase in circulating free fatty acid level in iv infused Sprague-Dawley rat after 45 mins by liquid chromatography-tandem mass spectrometric analysis; assay type: functional
[13] = Fraction unbound in rhesus monkey at 0.5 mg/kg, iv or 2 mg/kg, po; assay type: ADME, organism-based, Macaca mulatta; conditions: in vivo
Canis familiaris [14] = assay: Dose normalized fAUC in dog at 2 mg/kg, po; assay type: ADME, organism-based, Canis lupus familiaris; conditions: in vivo
[15] = Solubility of the compound in simulated gastric fluid; assay type: ADME
[16] = target: Beta-2 adrenergic receptor (Homo sapiens, UniProt P07550)
Description: Displacement of [125]I-cyanopindolol from human recombinant beta2 adrenergic receptor after 1 hr by scintillation counting method

[17] = target: Beta-3 adrenergic receptor (Macaca mulatta) (UniProt Q28524); assay: Agonist activity at rhesus monkey beta3 adrenergic receptor expressed in CHO cells assessed as accumulation of cAMP after 30 mins by TR-FRET assay in presence of 40% serum relative to (R)-(-)-isoproterenol; assay type: functional, cell-based
Rattus norvegicus [18] = assay: Dose normalized fAUC in rat at 2 mg/kg, po; assay type: ADME, organism-based; conditions: in vivo
Cynomolgus monkey [19] = assay: Dose normalized fAUC in cynomolgus monkey at 2 mg/kg, po; assay type: ADME, organism-based, Macaca fascicularis; conditions: in vivo
[20] = Plasma clearance in dog at 0.5 mg/kg, iv or 2 mg/kg, po; assay type: ADME, organism-based, Canis lupus familiaris
[21] = Drug recovery in bile duct cannulated rat at 5 mg/kg, iv measured over 48 hrs; assay type: ADME, organism-based; conditions: in vivo, read-out: Drug recovery
Rhesus monkey [22] = assay: Dose normalized total AUC in rhesus monkey at 2 mg/kg, po; assay type: ADME, organism-based, Macaca mulatta; conditions: in vivo
[23] = Drug recovery in bile duct cannulated rat bile at 10 mg/kg, po measured over 48 hrs; assay type: ADME, organism-based; conditions: read-out: Drug recovery
[24] = Solubility of the compound in buffer at pH <= […]; assay type: physicochemical
Cytochrome P450 2C19 = Cytochrome P450 2C19 (Homo sapiens, UniProt P33261); assay: Inhibition of CYP2C19 in human liver microsomes; assay type: ADME
[25] = Solubility of the compound in fed-simulated intestinal fluid; assay type: ADME; conditions: fed-state simulated intestinal fluid
[26] = Oral bioavailability in cynomolgus monkey at 2 mg/kg; assay type: ADME, organism-based, Macaca fascicularis; conditions: in vivo
Cynomolgus monkey [27] = assay: Toxicity in cynomolgus monkey assessed as effect on electrocadiograms measured up to 9 months; assay type: organism-based, Macaca fascicularis; conditions: in vivo
[28] = Plasma clearance in rhesus monkey at 0.5 mg/kg, iv or 2 mg/kg, po; assay type: ADME, organism-based, Macaca mulatta
[29] = Half life in dog at 0.5 mg/kg, iv or 2 mg/kg, po; assay type: ADME, organism-based, Canis lupus familiaris; conditions: in vivo
[30] = target: Beta-1 adrenergic receptor (Homo sapiens, UniProt P08588)
Description: Displacement of [125]I-cyanopindolol from recombinant human beta1 adrenergic receptor after 1 hr by scintillation counting method

[31] = target: T1, Beta-3 adrenergic receptor; assay: Agonist activity at human adrenergic beta3 receptor expressed in CHO cells assessed as accumulation of cAMP after 30 mins by TR-FRET assay in presence of 40% serum relative to (R)-(-)-isoproterenol; assay type: functional, cell-based
Rattus norvegicus [32] = assay: Increase in detrusor muscle relaxation in iv infused Sprague-Dawley rat acetic acid-induced bladder hyperreflexia model assessed as increase in functional bladder capacity measured over 30 to 45 mins; assay type: organism-based
[33] = target: Sodium-dependent serotonin transporter (Homo sapiens, UniProt P31645); assay: Inhibition of human SERT expressed in HEK293 cells preincubated for 30 mins followed by fluorescent substrate addition measured after 30 mins by plate reader analysis; assay type: cell-based
[34] = target: Sodium channel protein type 2 subunit alpha (Homo sapiens, UniProt Q99250); assay: Inhibition of human Nav1.2 channel expressed in Xenopus oocytes by two-intracellular microelectrode voltage clamp method; assay type: cell-based
Cynomolgus monkey [35] = assay: Dose normalized total AUC in cynomolgus monkey at 2 mg/kg, po; assay type: ADME, organism-based, Macaca fascicularis; conditions: in vivo
[36] = Oral bioavailability in rhesus monkey at 2 mg/kg; assay type: ADME, organism-based, Macaca mulatta; conditions: in vivo
[37] = Drug recovery in bile duct cannulated rat urine at 5 mg/kg, iv measured over 48 hrs; assay type: ADME, organism-based; conditions: read-out: Drug recovery
Canis familiaris [38] = assay: Dose normalized total AUC in dog at 2 mg/kg, po; assay type: ADME, organism-based, Canis lupus familiaris; conditions: in vivo
Rattus norvegicus [39] = assay: Unbound clearance in rat at 1 mg/kg, iv or 2 mg/kg, po; assay type: ADME, organism-based; conditions: in vivo
[40] = target: Beta-3 adrenergic receptor (Rattus norvegicus) (UniProt P26255); assay: Agonist activity at rat beta3 adrenergic receptor expressed in CHO cells assessed as accumulation of cAMP after 30 mins by TR-FRET assay relative to (R)-(-)-isoproterenol; assay type: functional, cell-based
[41] = Plasma clearance in cynomolgus monkey at 0.5 mg/kg, iv or 2 mg/kg, po; assay type: ADME, organism-based, Macaca fascicularis
Cytochrome P450 2C8 = Cytochrome P450 2C8 (Homo sapiens, UniProt P10632); assay: Inhibition of CYP2C8 in human liver microsomes; assay type: ADME
[42] = Chemical stability of the compound under forced degradation condition; assay type: physicochemical
[43] = Induction of phospholidosis in human HepG2 cells incubated overnight by […] in presence of fluorescent labeled phospholipid probe NBD-PE; assay type: cell-based; conditions: read-out: A50
Rattus norvegicus [44] = assay: Increase in detrusor muscle relaxation in iv infused Sprague-Dawley rat acetic acid-induced bladder hyperreflexia model assessed as decrease in micturition pressure measured over 30 to 45 mins; assay type: functional, organism-based
Rhesus monkey [45] = assay: Dose normalized fAUC in rhesus monkey at 2 mg/kg, po; assay type: ADME, organism-based, Macaca mulatta; conditions: in vivo
Cytochrome P450 1A2 = Cytochrome P450 1A2 (Homo sapiens, UniProt P05177); assay: Inhibition of CYP1A2 in human liver microsomes; assay type: ADME

T1 sequence (P13945 whole entry, looked up, the tested form may be a part): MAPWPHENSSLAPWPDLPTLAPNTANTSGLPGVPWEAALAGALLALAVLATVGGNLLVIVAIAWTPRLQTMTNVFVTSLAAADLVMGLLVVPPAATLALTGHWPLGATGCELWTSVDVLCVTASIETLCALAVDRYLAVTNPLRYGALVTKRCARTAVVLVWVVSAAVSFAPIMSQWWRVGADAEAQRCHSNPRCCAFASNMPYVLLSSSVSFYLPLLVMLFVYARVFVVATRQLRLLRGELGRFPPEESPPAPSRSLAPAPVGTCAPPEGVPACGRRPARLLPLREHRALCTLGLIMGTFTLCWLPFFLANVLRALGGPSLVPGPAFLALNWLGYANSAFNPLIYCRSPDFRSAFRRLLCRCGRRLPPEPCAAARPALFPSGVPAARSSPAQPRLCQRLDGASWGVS
Chain of Beta-1 adrenergic receptor (P08588 whole entry): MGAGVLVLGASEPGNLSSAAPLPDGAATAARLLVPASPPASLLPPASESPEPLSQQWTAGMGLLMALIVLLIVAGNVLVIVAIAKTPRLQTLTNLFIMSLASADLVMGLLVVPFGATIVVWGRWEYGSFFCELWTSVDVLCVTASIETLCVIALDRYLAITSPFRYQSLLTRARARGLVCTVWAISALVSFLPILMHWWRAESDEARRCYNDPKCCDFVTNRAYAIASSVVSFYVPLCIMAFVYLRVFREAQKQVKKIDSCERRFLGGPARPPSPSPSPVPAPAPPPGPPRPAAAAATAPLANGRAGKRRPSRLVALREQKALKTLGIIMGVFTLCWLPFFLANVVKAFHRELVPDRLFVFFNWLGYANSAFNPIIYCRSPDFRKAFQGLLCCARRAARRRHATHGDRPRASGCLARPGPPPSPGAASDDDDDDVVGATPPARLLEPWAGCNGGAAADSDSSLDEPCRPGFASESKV
Chain of Cytochrome P450 2C19 (P33261 whole entry): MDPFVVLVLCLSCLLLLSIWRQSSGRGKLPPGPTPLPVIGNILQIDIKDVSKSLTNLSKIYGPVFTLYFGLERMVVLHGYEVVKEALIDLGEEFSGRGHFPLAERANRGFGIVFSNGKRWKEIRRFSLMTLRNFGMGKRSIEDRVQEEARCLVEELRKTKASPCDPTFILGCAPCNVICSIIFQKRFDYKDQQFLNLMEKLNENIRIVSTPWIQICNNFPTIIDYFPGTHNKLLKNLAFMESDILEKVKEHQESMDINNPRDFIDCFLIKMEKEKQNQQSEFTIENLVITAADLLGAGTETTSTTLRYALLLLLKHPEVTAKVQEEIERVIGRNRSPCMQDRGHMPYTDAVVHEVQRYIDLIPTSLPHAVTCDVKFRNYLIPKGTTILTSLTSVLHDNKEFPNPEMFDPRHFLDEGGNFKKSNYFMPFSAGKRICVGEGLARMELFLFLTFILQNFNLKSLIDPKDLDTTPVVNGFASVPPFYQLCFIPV
Chain of Cytochrome P450 2C8 (P10632 whole entry): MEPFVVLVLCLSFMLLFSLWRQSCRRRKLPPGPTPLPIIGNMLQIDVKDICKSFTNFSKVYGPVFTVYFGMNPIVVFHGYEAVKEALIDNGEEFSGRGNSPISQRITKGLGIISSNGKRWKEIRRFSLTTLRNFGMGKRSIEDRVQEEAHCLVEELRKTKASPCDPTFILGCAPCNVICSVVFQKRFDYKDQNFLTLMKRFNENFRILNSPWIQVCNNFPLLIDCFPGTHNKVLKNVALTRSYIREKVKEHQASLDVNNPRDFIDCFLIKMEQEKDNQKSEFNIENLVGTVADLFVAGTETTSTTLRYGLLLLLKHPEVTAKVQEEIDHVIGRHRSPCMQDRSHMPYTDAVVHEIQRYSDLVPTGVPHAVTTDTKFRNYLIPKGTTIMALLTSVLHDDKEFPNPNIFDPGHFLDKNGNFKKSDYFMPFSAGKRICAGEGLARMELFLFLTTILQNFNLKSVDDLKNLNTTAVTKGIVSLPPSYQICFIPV
Chain of Beta-3 adrenergic receptor (Rattus norvegicus) (P26255 whole entry): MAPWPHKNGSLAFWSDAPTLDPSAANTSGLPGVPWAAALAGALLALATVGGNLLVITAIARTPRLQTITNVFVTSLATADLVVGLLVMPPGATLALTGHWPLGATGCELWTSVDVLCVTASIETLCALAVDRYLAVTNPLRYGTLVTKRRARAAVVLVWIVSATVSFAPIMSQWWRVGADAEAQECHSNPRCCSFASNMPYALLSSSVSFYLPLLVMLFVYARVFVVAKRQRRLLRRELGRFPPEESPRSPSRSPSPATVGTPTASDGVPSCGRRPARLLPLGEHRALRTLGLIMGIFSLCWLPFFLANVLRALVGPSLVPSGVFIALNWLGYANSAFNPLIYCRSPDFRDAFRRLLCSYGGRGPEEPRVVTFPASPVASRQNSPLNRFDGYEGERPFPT
Chain of Cytochrome P450 2D6 (P10635 whole entry): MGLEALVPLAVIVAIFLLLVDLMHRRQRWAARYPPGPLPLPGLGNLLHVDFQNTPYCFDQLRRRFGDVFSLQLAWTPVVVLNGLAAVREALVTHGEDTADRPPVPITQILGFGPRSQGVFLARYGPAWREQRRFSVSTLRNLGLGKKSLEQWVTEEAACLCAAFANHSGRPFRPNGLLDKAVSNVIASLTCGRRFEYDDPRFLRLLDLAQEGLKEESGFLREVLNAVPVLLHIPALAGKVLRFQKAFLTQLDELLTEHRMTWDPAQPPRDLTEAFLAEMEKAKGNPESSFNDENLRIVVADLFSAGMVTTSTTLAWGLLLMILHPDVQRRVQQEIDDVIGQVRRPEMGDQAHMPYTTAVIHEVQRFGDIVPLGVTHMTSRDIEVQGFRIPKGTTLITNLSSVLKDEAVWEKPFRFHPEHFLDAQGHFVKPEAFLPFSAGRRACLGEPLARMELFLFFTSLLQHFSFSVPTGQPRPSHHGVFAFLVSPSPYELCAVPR
Chain of Sodium channel protein type 2 subunit alpha (Q99250 whole entry, looked up): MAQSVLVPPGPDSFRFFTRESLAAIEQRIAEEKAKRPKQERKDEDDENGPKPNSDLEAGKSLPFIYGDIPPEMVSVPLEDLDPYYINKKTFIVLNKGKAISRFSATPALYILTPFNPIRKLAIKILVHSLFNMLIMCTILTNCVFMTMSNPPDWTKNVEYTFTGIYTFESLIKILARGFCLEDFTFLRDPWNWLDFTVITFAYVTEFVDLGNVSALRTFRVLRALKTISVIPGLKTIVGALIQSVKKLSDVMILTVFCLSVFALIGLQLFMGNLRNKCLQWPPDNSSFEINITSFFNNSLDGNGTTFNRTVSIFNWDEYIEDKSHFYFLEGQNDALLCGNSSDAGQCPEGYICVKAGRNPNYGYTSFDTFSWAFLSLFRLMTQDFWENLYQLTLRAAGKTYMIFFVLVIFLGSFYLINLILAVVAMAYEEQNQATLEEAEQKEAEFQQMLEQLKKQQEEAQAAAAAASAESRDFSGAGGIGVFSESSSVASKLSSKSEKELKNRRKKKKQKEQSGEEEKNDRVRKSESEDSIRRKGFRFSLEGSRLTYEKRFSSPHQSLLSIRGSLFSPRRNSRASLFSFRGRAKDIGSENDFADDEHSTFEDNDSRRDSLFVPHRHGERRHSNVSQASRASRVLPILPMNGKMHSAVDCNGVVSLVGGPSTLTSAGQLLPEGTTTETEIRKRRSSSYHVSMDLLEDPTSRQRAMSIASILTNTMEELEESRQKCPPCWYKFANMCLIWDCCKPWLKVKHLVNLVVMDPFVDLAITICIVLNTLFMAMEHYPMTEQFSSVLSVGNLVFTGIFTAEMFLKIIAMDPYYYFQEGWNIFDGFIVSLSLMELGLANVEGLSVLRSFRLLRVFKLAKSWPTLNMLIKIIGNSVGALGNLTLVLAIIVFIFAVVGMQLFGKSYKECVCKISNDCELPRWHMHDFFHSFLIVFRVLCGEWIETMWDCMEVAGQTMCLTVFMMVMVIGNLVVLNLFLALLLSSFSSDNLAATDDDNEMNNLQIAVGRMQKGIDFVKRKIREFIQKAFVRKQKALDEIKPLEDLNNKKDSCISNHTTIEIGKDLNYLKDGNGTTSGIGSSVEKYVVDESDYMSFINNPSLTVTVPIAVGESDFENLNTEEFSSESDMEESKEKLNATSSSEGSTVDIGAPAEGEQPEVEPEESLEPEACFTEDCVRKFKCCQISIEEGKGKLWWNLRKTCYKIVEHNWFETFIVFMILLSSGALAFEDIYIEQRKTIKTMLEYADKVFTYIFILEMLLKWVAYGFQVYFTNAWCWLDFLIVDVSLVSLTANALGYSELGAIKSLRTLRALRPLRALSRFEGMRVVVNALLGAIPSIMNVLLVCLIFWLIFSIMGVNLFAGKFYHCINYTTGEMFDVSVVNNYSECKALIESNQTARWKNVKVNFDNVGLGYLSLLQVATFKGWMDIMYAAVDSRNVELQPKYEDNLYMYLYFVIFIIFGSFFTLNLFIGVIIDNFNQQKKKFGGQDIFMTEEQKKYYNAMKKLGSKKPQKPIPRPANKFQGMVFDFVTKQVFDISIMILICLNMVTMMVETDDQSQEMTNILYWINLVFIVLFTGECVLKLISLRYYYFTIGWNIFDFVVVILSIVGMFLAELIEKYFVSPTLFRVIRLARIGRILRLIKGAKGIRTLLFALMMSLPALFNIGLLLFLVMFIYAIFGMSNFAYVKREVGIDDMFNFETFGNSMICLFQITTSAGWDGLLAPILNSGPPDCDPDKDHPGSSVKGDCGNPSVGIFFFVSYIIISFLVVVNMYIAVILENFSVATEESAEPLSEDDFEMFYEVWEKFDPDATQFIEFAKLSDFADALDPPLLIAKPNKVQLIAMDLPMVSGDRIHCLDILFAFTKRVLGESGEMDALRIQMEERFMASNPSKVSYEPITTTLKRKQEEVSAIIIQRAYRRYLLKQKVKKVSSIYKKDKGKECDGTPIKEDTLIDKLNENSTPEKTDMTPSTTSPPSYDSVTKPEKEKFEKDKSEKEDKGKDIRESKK

O=C(Nc1ccc(C[C@@H]2CC[C@H]([C@H](O)c3ccccc3)N2)cc1)[C@@H]1CCc2nccc(=O)n21 [VIBEGRON]
half-life [1]: 7 h | dose excreted at 48 h [2]: 33% | fraction unbound [3]: 0.41 | IC50 (Cytochrome P450 2D6): > 100 µM | TDI (Cytochrome P450 3A4): Not Active | Activity (Cynomolgus monkey [4]): Non-toxic | CLint scaled [5]: < 10 mL/min/kg | bioavailability [6]: 44% | remaining at 24 h [7]: 100% | EC50 [8]: 0.0071 µM | CLint scaled [9]: 13 mL/min/kg | remaining at 24 h [10]: 100% | max activation [11]: 84% | Activity (Rattus norvegicus [12]): Dose-dependent effect | minimal effective dose (Rattus norvegicus [12]; 0.75 h, read-out: MED): 0.3 mg/kg | fraction unbound [13]: 0.49 | fAUC/dose (Canis familiaris [14]): 490 nM·h/mg/kg | solubility [15]: > 4000 µg/mL | IC50 [16]: > 20 µM | max activation [17]: 103% | fAUC/dose (Rattus norvegicus [18]): 113 nM·h/mg/kg | fAUC/dose (Cynomolgus monkey [19]): 500 nM·h/mg/kg | clearance [20]: 15 mL/min/kg | dose excreted at 48 h [21]: 83% | AUC/dose (Rhesus monkey [22]): 540 nM·h/mg/kg | dose excreted at 48 h [23]: 36% | solubility [24]: > 4000 µg/mL | IC50 (Cytochrome P450 2C19): > 100 µM | solubility [25]: > 4000 µg/mL | bioavailability [26]: 46% | Activity (Cynomolgus monkey [27]): Non-toxic | clearance [28]: 16 mL/min/kg | half-life [29]: 13 h | IC50 [30]: > 20 µM | max activation [31]: 101% | Activity (Rattus norvegicus [32]): Dose-dependent effect | IC50 [33]: > 10 µM | IC50 [34]: > 30 µM | AUC/dose (Cynomolgus monkey [35]): 870 nM·h/mg/kg | bioavailability [36]: 23% | dose excreted at 48 h [37]: 37% | AUC/dose (Canis familiaris [38]): 1200 nM·h/mg/kg | CL free (Rattus norvegicus [39]): 67 mL/min/kg | max activation [40]: 83% | clearance [41]: 20 mL/min/kg | IC50 (Cytochrome P450 2C8): > 100 µM | Stability [42]: Stable | AC50 [43]: > 70 µM | Activity (Rattus norvegicus [44]): Dose-dependent effect | fAUC/dose (Rhesus monkey [45]): 260 nM·h/mg/kg | IC50 (Cytochrome P450 1A2): > 100 µM
